Measured values from paper PMC5854716, “Synthesis, molecular docking, ctDNA interaction, DFT calculation and evaluation of antiproliferative and anti-Toxoplasma gondii activities of 2,4-diaminotriazine-thiazole derivatives” (Medicinal Chemistry Research, 2018).

Tests used:
VERO cells = experiment: Cell viability assay (MTT), VERO; type: cell-based, Cercopithecus aethiops; conditions: 24 h; for CC30 VERO: concentration for 30% proliferation inhibition
Procedure: (§1) The epithelial cell line VERO (ATCC-Catalog No. CCL-81^TM), derived from the kidney of the African green monkey, Cercopithecus aethiops and fibroblast cell line L-929 (ATCC-Catalog No. CCL-1^TM), derived from Mus musculus (http://www.atcc.org) were grown in Iscoves’s Modified Dulbecco’s Medium (IMDM) supplemented with 10% (v/v) fetal bovine serum (FBS), plus 2 mM L-glutamine, 100 U/ml penicillin, 100.00 µg/ml streptomycin, 5 × 10^−5 M 2-mercaptoethanol and maintained at 37 °C in a 10% CO2 atmosphere. Subcultures were performed via enzymatic cell dissociation in 0.25% trypsin. After dissociation, the cells were placed in culture medium at 4 °C with 10% FBS to inhibit the action of trypsin. The isolated cells were centrifuged for 10 min at 1000×g at 4 °C, and the cells were grown in new bottles. This procedure was repeated when cells reached a confluence of ~90%. All commercial reactants and solvents were purchased from either Sigma-Aldrich Laborchemikalien GmbH (Dzitko et al. [2014]).
(§2) Suspensions of the compounds 4a–l were freshly prepared (5 mg/ml DMSO) before the cells were exposed, and diluted to appropriate concentrations; 0.9, 1.8, 3.9, 7.8, 15.6, 31.2, 62.5, and 125.00 μg/ml with the culture medium. Cells treated with 2.5% DMSO-solvent served as a control in each experiment.
(§3) The effects of tested compounds on the viability of mouse fibroblasts L929 and […] VERO cells were evaluated using the MTT assay. The MTT assay was used according to international standards: ISO 10993-5:2009 (Tests for in vitro cytotoxicity; http://www.iso.org/iso/catalogue_detail.htm? csnumber = 36406). L929 and VERO cells were plated into 96-well plates at a density of 1.0 × 10^4/100 μl/well in culture medium and allowed to attach for 24 h before treatment. Afterwards, culture medium in the plates was replaced by 100 μl compounds suspension at concentration of 0–125 μg/ml and the cells were exposed for 24 h. Then 1 mg/ml MTT (50 μl/well) was added to each well and incubated at 37 °C, 10 % CO2 for 2 h. Mitochondrial dehydrogenases of viable cells reduce the yellowish water-soluble MTT to water-insoluble formazan crystals, which were solubilized with dimethyl sulfoxide (DMSO). The cell culture medium was aspirated cautiously, after which 150 μl DMSO was added to each well and mixed thoroughly. Optical density (OD) was read on the ELISA reader (Multiskan EX, Labsystems; http://www.mtxlsi.com/multiskan_EX.htm) at 550 nm. The results were expressed as percentage viability compared with the treated 2.5% DMSO controls. All experiments were performed in triplicate.

mouse L929 fibroblast = experiment: Cell viability assay (MTT), L929; type: cell-based; conditions: 24 h; for CC30 L929: concentration for 30% proliferation inhibition
Procedure: as §1, §2, §3

[1] = Cell viability assay (MTT), VERO; type: cell-based, Cercopithecus aethiops; conditions: African green monkey (Cercopithecus aethiops), VERO kidney epithelial cells
Procedure: as §1, §2, §3

[2] = tested on: human lung carcinoma A549 cells; experiment: In vitro antiproliferative assay (SRB), A549; type: cell-based; conditions: mean ± SD; for IC50: Homo sapiens, A549, 72 h exposure; for IC50 A549: 72 h exposure
Procedure: Biphenotypic B myelomonocytic leukemia MV4-11, human lung carcinoma A549, human breast carcinoma MCF-7, and normal mouse fibroblast BALB/3T3 cells were obtained from American Type Culture Collection (Rockville, Maryland, USA). All the cell lines are being maintained at the Institute of Immunology and Experimental Therapy, Wroclaw, Poland. MV4-11 cells were cultured in RPMI 1640 medium (Gibco, UK) with 2 mM L-glutamine adjusted to contain 1.0 mM sodium pyruvate, and 10% fetal bovine serum (FBS) (all from Sigma-Aldrich, Germany). A549 cells were cultured in RPMI 1640+ Opti-MEM (1:1) (both from Gibco, UK), MCF-7 cells in Eagle medium (IIET, Wroclaw, Poland), BALB/3T3 in Dulbecco medium (IIET, Poland) supplemented with 2 mM L-glutamine and 1.0 mM sodium pyruvate, 10% fetal bovine serum (all from Sigma-Aldrich, Germany). The MCF-7 cell culture was supplemented with 0.8 mg/l of insulin (Sigma-Aldrich, Germany). All culture media were supplemented with 100 units/ml penicillin, and 100 µg/ml streptomycin (both from Polfa Tarchomin S.A., Poland). All cell lines were grown at 37 °C with 5% CO2 humidified atmosphere (Łączkowski et al. [2014], [2016a]). Prior to usage, the compounds were dissolved in DMSO and culture medium (1: 9) to the concentration of 1 mg/ml, and subsequently diluted in culture medium to reach the required concentrations (0.1, 1, 10, and 100 µg/ml) (Łączkowski et al. [2014], [2016a]). Twenty-four hours prior to the addition of the tested compounds, the cells counted using Burker hemocytometer were plated in 96-well plates (Sarstedt, Germany) at a density of 1 × 10^4 cells per well. The assay was performed after 72 h of exposure to varying concentrations of the tested agents. The in vitro cytotoxic effect of all agents was examined using the SRB assay for adherent cells (A549, MCF-7, and BALB/3T3) or MTT assay for leukemia cells (MV4-11) as described previously. […] Each compound in each concentration was tested in triplicate in a single experiment, which was repeated 3–7 times (Rubinstein et al. [1990]; Bramson et al. [1995]). Cells were attached to the bottom of plastic wells by fixing them with cold 50% TCA (trichloroacetic acid, POCH, Gliwice, Poland) on top of the culture medium in each well. The plates were incubated at 4 °C for 1 h and then washed five times with tap water. The cellular material fixed with TCA was stained with 0.1% sulforhodamine B (SRB, Sigma-Aldrich, Germany) and dissolved in 1% acetic acid (POCH, Gliwice, Poland) for 30 min. Unbound dye was removed by rinsing (4×) in 1% acetic acid. The protein-bound dye was extracted with 10 mM unbuffered Tris base (Sigma-Aldrich, Germany) for determination of the optical density (λ = 540 nm) in a computer-interfaced, 96-well Synergy H4 (BioTek Instruments USA) photometer microtiter plate reader (Sidoryk et al. [2012]).

Compound | Viability VERO (VERO cells; 0.9 µg/ml) [%] | Viability VERO (VERO cells; 1.8 µg/ml) [%] | Viability VERO (VERO cells; 3.9 µg/ml) [%] | Viability VERO (VERO cells; 7.8 µg/ml) [%] | Viability VERO (VERO cells; 15.6 µg/ml) [%] | Viability VERO (VERO cells; 31.2 µg/ml) [%] | Viability VERO (VERO cells; 62.5 µg/ml) [%] | CC30 VERO (VERO cells) [µg/mL] | Viability L929 (mouse L929 fibroblast; 0.9 µg/ml) [%] | Viability L929 (mouse L929 fibroblast; 1.8 µg/ml) [%] | Viability L929 (mouse L929 fibroblast; 3.9 µg/ml) [%] | Viability L929 (mouse L929 fibroblast; 7.8 µg/ml) [%] | Viability L929 (mouse L929 fibroblast; 15.6 µg/ml) [%] | Viability L929 (mouse L929 fibroblast; 31.2 µg/ml) [%] | Viability L929 (mouse L929 fibroblast; 62.5 µg/ml) [%] | CC30 L929 (mouse L929 fibroblast) [µg/mL] | viability at 24 h, 0.9 µg/ml [1] [%] | Viability VERO (VERO cells; 125.0 µg/ml) [%] | Viability L929 (mouse L929 fibroblast; 125.0 µg/ml) [%] | IC50 A549 [2] | also measured
C/C(=N\Nc1nc(-c2ccc3[nH]c(=O)oc3c2)cs1)c1ccc(Nc2nc(N)nc(N)n2)cc1 [Compound 4l, (E)-6-(2-(2-(1-(4-(4,6-diamino-1,3,5-triazin-2-yloamino)phenyl)ethylidene)hydrazinyl)thiazol-4-yl)-benzo[d]oxazol-2(3H)-on] | 97.13 | 87.85 | 95.16 | 91.03 | 96.08 | 95.40 | 97.33 | >62.5 | 103.88 | 109.00 | 103.03 | 101.74 | 105.02 | 105.52 | 108.10 | >62.5 |  |  |  |  | 
C/C(=N\Nc1nc(-c2ccc(Cl)c(Cl)c2)cs1)c1ccc(Nc2nc(N)nc(N)n2)cc1 [Compound 4i, (E)-N^2-(4-(1-(2-(4-(3,4-dichlorophenyl)-1,3-thiazol-2-yl)hydrazinylidene)ethyl)phenyl)-1,3,5-triazine-2,4,6-triamine] |  |  |  |  |  |  |  | >62.5 |  |  |  |  |  |  |  | >62.5 | 97.5 |  |  |  | viability at 24 h, 1.8 µg/ml [1]: 93.7%; viability at 24 h, 3.9 µg/ml [1]: 93.9%; viability at 24 h, 7.8 µg/ml [1]: 92.6%; viability at 24 h, 15.6 µg/ml [1]: 97.3%; viability at 24 h, 31.2 µg/ml [1]: 112%; viability at 24 h, 62.5 µg/ml [1]: 111%; IC50 [2]: 57.5 ± 20.7 µg/mL
C/C(=N\Nc1nc(-c2cc3ccccc3oc2=O)cs1)c1ccc(Nc2nc(N)nc(N)n2)cc1 [Compound 4f, (E)-3-(2-(2-(1-(4-(4,6-diamino-1,3,5-triazin-2-yloamino)phenyl)ethylidene)hydrazinyl)thiazol-4-yl)-2H-chromen-2-on] | 97.81 | 100.84 | 104.30 | 104.39 | 108.19 | 117.52 | 103.77 | >125.0 | 98.99 | 102.21 | 101.95 | 96.25 | 100.89 | 104.60 | 109.54 | >125.0 |  | 111.27 | 108.66 | no antiproliferative activity | 
CC(=O)Nc1ccc(-c2csc(N/N=C(\C)c3ccc(Nc4nc(N)nc(N)n4)cc3)n2)cc1 [Compound 4g, (E)-N^2-(4-(2-(2-(1-(4-(4,6-diamino-1,3,5-triazin-2-yloamino)phenyl)ethylidene)hydraziny)thiazol-4-yl)phenyl)-acetamide] | 93.72 | 90.59 | 95.35 | 98.14 | 98.43 | 98.96 | 94.25 | >125.0 | 102.34 | 102.12 | 100.36 | 98.86 | 94.31 | 99.83 | 103.01 | >125.0 |  | 91.41 | 105.39 | no antiproliferative activity | 
C/C(=N\Nc1nc(-c2ccc([N+](=O)[O-])cc2)cs1)c1ccc(Nc2nc(N)nc(N)n2)cc1 [Compound 4h, (E)-N^2-(4-(1-(2-(4-(4-nitrophenyl)-1,3-thiazol-2-yl)hydrazinylidene)ethyl)phenyl)-1,3,5-triazine-2,4,6-triamine] |  |  |  |  |  |  |  | >125.0 |  |  |  |  |  |  |  | >125.0 | 104 |  |  |  | viability at 24 h, 1.8 µg/ml [1]: 99.4%; viability at 24 h, 3.9 µg/ml [1]: 106%; viability at 24 h, 7.8 µg/ml [1]: 109%; viability at 24 h, 15.6 µg/ml [1]: 110%; viability at 24 h, 31.2 µg/ml [1]: 109%; viability at 24 h, 62.5 µg/ml [1]: 109%; viability at 24 h, 125 µg/ml ([1]; 125.0 µg/ml): 104%; IC50 [2]: 33.6 ± 2.42 µg/mL
C/C(=N\Nc1nc(-c2ccc(NS(C)(=O)=O)cc2)cs1)c1ccc(Nc2nc(N)nc(N)n2)cc1 [Compound 4j, (E)-N-(4-(2-(2-(1-(4-(4,6-diamino-1,3,5-triazin-2-yloamino)phenyl)ethylidene)hydrazinyl)thiazol-4-yl)phenyl)-methanesulfonamide] | 79.82 | 93.81 | 93.62 | 89.25 | 90.98 | 96.22 | 97.76 | >125.0 | 98.90 | 106.36 | 104.20 | 101.86 | 100.71 | 104.07 | 102.92 | >125.0 |  | 89.44 | 106.67 | no antiproliferative activity | 
